Several values for one entry are separate records, joined by “and”; a condition that tells them apart may be missing. Equal values may be shown once. Positions of bridges follow the written chain, without caps; N, C: chain ends. Non-standard residues stand in square brackets, D forms with d. Residues, ends and D or L forms follow the SMILES beside them.
How the values were obtained:
Modified LD50 technique = assay type: in vivo, mouse; conditions: 11 mg i.p.
[1] = tested on: ovalbumin-induced pulmonary inflammation, IgE, IL-4 and recall responses; assay: Ovalbumin-induced asthma / hypersensitivity model; assay type: in vivo, mice; conditions: Group 4: Ova on days 8, 15, 18, 21 & 35, treat BID 14 days, sacrifice day 35 (recent Ova challenge), 0 µg/ml Ova
[2] = tested on: MCP-1 binding to heparin-coated agarose beads; assay: Competition with 125I-MCP-1 for heparin-coated agarose beads; conditions: 10^-11 to 10^-4 M
Description: Chemokines bind to glycosaminoglycans on the cell surface, which may facilitate chemokine receptor binding and subsequent signaling. […] This was followed by a monophasic displacement curve at concentrations of approximately 10^-7 to 10^-5 M MCP-1.

THP-1 cells = assay: Agonist activity: agent in the lower compartment of the migration chamber; assay type: cell-based, human
Description: Agents with agonist activity may also be identified using the transwell migration assay, where the cells are placed in the upper compartment (see Figure 1) in the absence of agent, and the agent, e.g. peptide 2[MCP-1], is placed at varying concentrations in the lower compartment in place of the chemokine. […] Preferably, agents having agonist activity also stimulate migration of primary human cells, e.g., monocytes, in a transwell migration assay.
To evaluate the agonist activity ofCRD-Leu4Ile11Cys13 peptide 3(3-12)[MCP-1], CRD-Leu4Ile11Cys13 peptide 3(3-12)[MCP-1] was placed in the lower compartment of the migration chamber at various concentrations and 50,000 THP-1 cells were placed in the upper compartment. The number of cells in the lower compartment after 4 hours was then determined using the vital dye MTT. […] At higher concentrations (1 µM and 10 µM), there may be a small stimulation of migration in this experiment, although the magnitude of this migratory response was less than that seen with 3.25 ng/ml recombinant MCP-1. CRD-Leu4Ile11Cys13 peptide 3(3-12)[MCP-1] is unlikely to have any agonist activity that is significant at concentrations attainable in vivo.

[3] = tested on: TGFβ1 induced human monocyte migration; assay: Migration of freshly prepared peripheral blood monocytes, TGFβ1; assay type: cell-based
Protocol: (§1) Agents may also be screened in a chemotactic assay which employs human neutrophils, eosinophils, mast cells, basophils, platelets, lymphocytes or monocytes. For monocytes, 9 mls of fresh blood are transferred to a tube containing 1 ml of 3.8% sodium citrate, and left at room temperature for 15 minutes. Five mls of this anti-coagulated blood are carefully layered over 3.5 ml Polymorphprep® (Nycomed Pharma, Oslo), and centrifuged at 500 g for 35 minutes per the manufacturer's instructions. The top band at the sample/medium interface contains monocytes. The monocytes are carefully removed with a glass pipette, and reconstituted to the original volume (5 ml). The cells are washed with PBS plus 10% fetal calf serum, and centrifuged at 400 g for 10 minutes. The washing step is repeated three times before the cells are counted. Cells are resuspended at 1 × 10^7 cells/ml in RPMI-1640 + 10% fetal calf serum (FCS). The monocytes are cultured for two days at 37°C in a humidified atmosphere of 5% CO2-
(§2) On day 2, the cells are counted, spun down, and reconstituted to 1 × 10^7 cells/ml in Gey's balanced salt solution + 1 mg/ml bovine serum albumin (BSA). […]

[4] = tested on: MIP1α induced human monocyte migration; assay: Migration of freshly prepared peripheral blood monocytes, MIP1α; assay type: cell-based
Protocol: as §1, §2

SMILES: CC[C@@H](C)[C@H]1NC(=O)[C@@H](CCC(N)=O)NC(=O)[C@H](N)CSSC[C@H](C(N)=O)NC(=O)[C@@H](CC(C)C)NC(=O)[C@@H](CC(=O)O)NC(=O)[C@H]2CCCN2C(=O)[C@@H](CCCCN)NC(=O)[C@@H](CCC(N)=O)NC(=O)[C@@H](CCCCN)NC(=O)[C@@H](Cc2c[nH]c3ccccc23)NC1=O (H-[dC][dQ][dI][dW][dK][dQ][dK][dP][dD][dL][dC]-NH2; disulfide 1-11)
- lethality after intraperitoneal administration (in words) (Modified LD50 technique): did not result in lethality
- IL-4 Assays, pg/ml IL-4, individual mice m1-m4 [1]: 2.61 pg/mL and 1.11 pg/mL and 5.08 pg/mL and 2.88 pg/mL
- Total IgM + IgG (1 week splenocyte cultures), individual mice m1-m4 ([1]; listed as CRD-Leu4Ile11Cys13 peptide 3(3-12)[MCP]): 15.32 and 25.86 and 14.87 and 12.60
- displacement of MCP-1 from heparin-coated agarose beads (in words) [2]: did not result in displacement
- agonist activity (in words) (THP-1 cells): No agonist activity was detected

SMILES: CC[C@H](C)[C@H](NC(=O)[C@H](C)NC(=O)[C@H](CC(=O)O)NC(=O)[C@@H]1CCCN1C(=O)[C@H](CCC(N)=O)NC(=O)[C@H](C)N)C(=O)N[C@@H](CC(N)=O)C(=O)N[C@@H](C)C(=O)N1CCC[C@H]1C(=O)N[C@H](C(=O)N[C@H](C(=O)N[C@@H](CS)C(=O)N[C@@H](CS)C(=O)O)[C@@H](C)O)C(C)C [Peptide 1] (H-AQPDAINAPVTCC-OH; N-terminus and C-terminus assumed)
- % inhibition at 100 µM versus TGFβ1 [3]: n.s.
- % inhibition at 100 µM versus MIP1α [4]: n.s.
